{"source": "paper PMC11915509", "about": "“Small molecule inhibitors of hnRNPA2B1–RNA interactions reveal a predictable sorting of RNA subsets into extracellular vesicles” (Nucleic Acids Research, 2025)", "molecules": {"B1": {"name": "RNA 276 (ssRNA)", "RNA": "AGGACUGC"}, "B2": {"name": "EXOmotif RNA (biotin) (ssRNA)", "RNA": "GGGGAGGUUAGGGAGGAGGGGGGUAGGCGCC"}}, "key": {"[1]": {"molecular_target": "T1, hnRNPA2B1-EXOmotif interaction (Homo sapiens, UniProt P22626)", "T1 construct": "purified a human full-length, GST-tagged protein expressed in Escherichia coli cells; made in house; host or cells: E. coli BL21 (DE3)", "T1 sequence (P22626 whole entry)": "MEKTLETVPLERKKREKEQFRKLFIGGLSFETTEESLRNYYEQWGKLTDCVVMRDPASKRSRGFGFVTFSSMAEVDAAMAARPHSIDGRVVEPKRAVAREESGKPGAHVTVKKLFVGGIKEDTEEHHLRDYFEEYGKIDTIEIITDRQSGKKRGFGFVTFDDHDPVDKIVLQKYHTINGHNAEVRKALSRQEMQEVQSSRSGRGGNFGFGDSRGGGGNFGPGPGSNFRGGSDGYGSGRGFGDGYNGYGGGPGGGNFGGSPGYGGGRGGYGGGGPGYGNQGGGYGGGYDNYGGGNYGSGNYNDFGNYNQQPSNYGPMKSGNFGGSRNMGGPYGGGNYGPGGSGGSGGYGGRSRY", "experiment": "AlphaScreen dose-response, inhibition of hnRNPA2B1-EXOmotif RNA interaction", "assay_type": "binding", "details": "AlphaScreen dose-response with RNA EXOmotif, one site fitting", "description": "The assays were performed in OptiPlate-384-well plates (PerkinElmer, 6007299) in 20 μl final volume. The ligands were diluted in AlphaBuffer [25 mM HEPES, pH 7.4, 100 mM NaCl, 0.01% bovine serum albumin (BSA)] and tested using AlphaScreen GST Detection Kit (PerkinElmer, 6760603C). […] For the reactions, 4 μl of the RNA probes were first added to the plate, then 16 μl of a mix containing all the other components was added, and the plate was incubated at room temperature for 1 h in the dark.\nThe high-throughput drug screening was performed in a total volume of 20 μl using 17 nM of RNA EXO motif (chosen below the hooking point), 30 nM GST-hnRNPA2B1, and 250 nM of compounds belonging to mass spectrometry (MS) Spectrum Collection library (MicroSource, 2000 compounds). Compounds were dispensed into white 384-well Optiplates (PerkinElmer) using Echo 650 acoustic dispenser (Beckman Coulter) followed by the addition of protein in Alpha Buffer using the EL460 dispenser (BioTek). After 15 min of incubation, RNA probes were added by Echo 650 acoustic dispenser, while Donor and Acceptor beads from the GST detection kit (Perkin Elmer) were dispensed by EL460 instrument. Following 60 min of incubation, Alpha signal was detected using Enspire plate reader instrument (PerkinElmer). The raw Alpha counts were normalized to Dimethyl sulfoxide (DMSO)-treated controls within every plate."}, "EXO-motif RNA probe": {"test_system": "EXO-motif RNA probe", "experiment": "Absorbance scan of compounds mixed with EXO-motif RNA", "assay_type": "binding", "details": "EXO-motif RNA probe, 1:5 micromolar ratio", "protocol": "(§1) Five μM RNA EXO motif were mixed with 25 μM compounds in AlphaBuffer (25 mM HEPES, pH 7.4, 100 mM NaCl, 0.01% BSA) to a final volume of 20 μl. Absorbance spectrum (200–530 nm) was measured using Tecan Spark® microplate reader with a NanoQuant plate at room temperature. In fluorescence indicator displacement (FID), a 2× final concentration of Midori green advanced (Resnova) was added to the samples and the melting curve measured using Bio-Rad CFX96™ System from 30°C to 90°C."}, "[2]": {"test_system": "hnRNPA2B1 and TDP43 bound RNA (miR-221, miR-1910)", "experiment": "RNA immunoprecipitation (RIP) on cytoplasmic lysates of treated NSC34 cells", "assay_type": "cell-based, mouse", "details": "6 h treatment, anti-hnRNPA2B1 and anti-TDP43 RIP", "protocol": "Flow cytometry of a fraction of RNA immunoprecipitation (RIP) experiments, consisting of RNA/protein-antibody-bead complexes, was performed on the same instrument using a sequential gating with Streptavidin beads alone ± antibodies (this signal corresponded to background). Pyronin Y (PY) was used at a final concentration of 50 ng/ml and the PY-positive events recorded for 1 min.\nApproximately 2 × 10^6 cells were used for each RIP experiment, performed as already described, without cross-linking steps and using 0.5 μg/ml of antibodies. Beads-precipitated samples were divided for immunoblotting or TRIzol-based RNA isolation. Densitometric analysis obtained using Image J software (v.1.54). miRNA TaqMan probes were bought from Thermo Fisher with the following codes: miR-221 (477 981), miR-1910 (479 581), and miR-126 (4 427 975)."}, "NSC34 cells": {"test_system": "NSC34 cells", "experiment": "Nanodrop quantification of total intracellular RNA after treatment", "assay_type": "cell-based, mouse", "details": "6 h treatment", "protocol": "RNA from cells was extracted using TRI Reagent® ([…], Sigma) following the manufacturer's instructions. Thermo Fisher Nanodrop 2000 Spectrophotometer was used to assess the purity and quantity of extracted RNA. RNA from EVs was extracted using Single Cell RNA Isolation Kit (51800, Norgen) following the manufacturer's protocol. The elution was in 10-20 μl of RNase-free water and the RNA profiling and quantification was assessed by Agilent 2100 Bioanalyzer and RNA 6000 Pico Kit (5067-1513). Cell- and EV-RNAs were also analysed with DNF-472 HS RNA (15 nt) Kit (Agilent Technologies, Santa Clara, CA), according to the manufacturer. Briefly, 2 μl of RNA samples concentrated within a range of 50-5000 pg/μl and RNA Ladder were added to Diluent Marker, denatured at 70°C for 2 min and loaded. Results were analysed with Agilent ProSize data analysis software, that allows the analysis of RNA size, concentration and quality. Through a Peak Analysis it was possible to access the concentration of each peak recognized by the software. Half a nanogram of extracted RNA from cells and EVs was used as input for complementary DNA (cDNA) synthesis. cDNA was produced using TaqManTM Advanced miRNA cDNA Synthesis Kit (Applied BiosystemsTM, A28007) following manufacturers' instructions and used for droplet digital polymerase chain reaction (PCR) experiments."}, "[3]": {"test_system": "EV miR-221 from NSC34 cells", "experiment": "ddPCR of miR-221-3p in NSC34-derived EV-RNA", "assay_type": "cell-based, mouse", "details": "NSC34-derived EVs, 6 h treatment", "protocol": "EVs were isolated from HEK293T, NSC34, and smNPC-derived motor neurons using nickel-based isolation (NBI) or differential ultracentrifugation (UC). NBI protocol was performed as already described. Briefly, after a first centrifugation step at 2800 × g for 10 min, nickel beads were incubated for 30 min with serum-free media collected from cells in a ratio of 25 μl of beads per ml of medium. After a 2 min centrifugation at 600 g, particles were eluted from the beads by adding 1× elution buffer made of Solution A [16 mM ethylenediaminetetraacetic acid (EDTA), UltraPure, pH 8.0, Thermo Fisher] and Solution B (10 mM NaCl, 225 μM citric acid, Sigma–Aldrich) diluted five times in phosphate-buffered saline (PBS). After 15 min incubation at 28°C in a thermoshaker, the EVs were retrieved by 1-min centrifugation at 1800 × g and subjected to the following characterization. NBI was used to recover polydisperse EVs and include the RNA contribution from these for reverse proteomics experiments. The EV-RNA for reverse proteomics was pooled from three consecutive EV isolation procedures performed on a total of 30 T75 flasks (10 flasks each) of NSC34 cells grown until 80% confluence under standard conditions before washing with PBS and incubating with serum-free medium with glutamine and antibiotics. Differential UC was applied as an alternative EV isolation protocol to confirm the detection of hnRNPA2B1 protein. UC was performed by a SW 32 Ti swinging bucket rotor in an Optima XPN-100 ultracentrifuge (Beckman Coulter, Brea, CA, USA). The cell-conditioned serum-free media, after the first centrifugation step at 2800 × g for 10 min, was put in open-top Ultra-Clear centrifuge tubes (Beckman Coulter-344058) and subjected to 100 000 × g (100 K) UC for 70 min at 4°C under vacuum, with or without an additional step at 10 000 × g (10 K) to first sediment larger particles. Then the supernatant was removed, and the pellet was resuspended in 0.22 μm filtered PBS. Differential UC alone, consisting of 2800 × g for 10 min and 100 000 × g for 70 min, was applied for experiments reported in Fig. 5. […]\nRNA from cells was extracted using TRI Reagent® (T9424, Sigma) following the manufacturer’s instructions. Thermo Fisher Nanodrop 2000 Spectrophotometer was used to assess the purity and quantity of extracted RNA. […] The elution was in 10–20 μl of RNase-free water and the RNA profiling and quantification was assessed by Agilent 2100 Bioanalyzer and RNA 6000 Pico Kit (5067-1513). Cell- and EV-RNAs were also analysed with DNF-472 HS RNA (15 nt) Kit (Agilent Technologies, Santa Clara, CA), according to the manufacturer. […] Results were analysed with Agilent ProSize data analysis software, that allows the analysis of RNA size, concentration and quality. […]"}, "[4]": {"test_system": "hnRNPA2B1 protein association with purine-rich RNA probe", "experiment": "RNA pull-down with biotinylated EXOmotif probe after cell treatment, immunoblotting", "assay_type": "cell-based, mouse", "details": "NSC34 cells, 6 h, 5 μM compound", "protocol": "To prepare native protein lysates, 1–3 × 10^6 NSC34 cells were lysed in buffer R-Lysis [25 mM HEPES, pH 7.5, 100 mM NaCl, 1× protease inhibitor (Thermo Fisher, 78429)] and subjected to a water-bath sonication (35–40 amplitude, 6–7 cycles of 7 s on and 45 s off). After a centrifugation at 14 000 rpm for 20 min at 4°C, the supernatant was collected and 200 μg were incubated with 5 μl of buffer equilibrated Dynabeads^TM M-280 Streptavidin (Invitrogen, 11205D) for 15 min at 4°C in rotation to perform a pre-clearing step. After the magnetic separation, the pre-cleared lysate was incubated with 10 μl of 100 μM RNA biotinylated probes (or 400 ng of biotinylated EV-RNA) and incubated for 1 h at 4°C in rotation. Then, 5 μl/sample of beads were added and the sample were put again in rotation for 20 min at 4°C. […]\nCells were lysed in lysis buffer [50 mM Tris–HCl, pH 7.4, 150 mM NaCl, 1 mM EDTA, 0.25% NP-40, 0.1% Triton X-100, 0.1% sodium dodecyl sulphate, 1× protease inhibitor (Thermo Fisher, 78429)]. […] The signal was measured with Amersham ECL HRP-Conjugated Antibodies (Cytiva) using BioRad Chemidoc XRS+."}, "EXO-motif RNA": {"test_system": "EXO-motif RNA", "experiment": "Fluorescence indicator displacement (FID) melting curve, EXO-motif RNA", "assay_type": "binding", "details": "5 μM RNA, 25 μM compound, Midori green", "protocol": "as §1"}, "GST-hnRNPA2B1 [5]": {"molecular_target": "T2, GST-hnRNPA2B1 (Homo sapiens, UniProt P22626 1-353)", "T2 sequence (P22626 whole entry)": "as above", "experiment": "AlphaScreen saturation binding; near-background counts; AlphaScreen: 25 mM HEPES pH 7.4, 100 mM NaCl, 0.01% BSA, RT 1 h; REMSA: 20 mM HEPES pH 7.5, 50 mM KCl, 0.5 ug BSA, 0.25% glycerol, RT; pull-down: 25 mM HEPES pH 7.5, 100 mM NaCl, 4 C", "details": "protein: recombinant; tags: N-terminal GST (pGEX-6P-1); label: 5'-biotin-TEG; single strand"}, "GST-hnRNPA2B1 [6]": {"molecular_target": "T2, GST-hnRNPA2B1", "experiment": "AlphaScreen saturation binding; AlphaScreen: 25 mM HEPES pH 7.4, 100 mM NaCl, 0.01% BSA, RT 1 h; REMSA: 20 mM HEPES pH 7.5, 50 mM KCl, 0.5 ug BSA, 0.25% glycerol, RT; pull-down: 25 mM HEPES pH 7.5, 100 mM NaCl, 4 C", "details": "protein: recombinant; tags: N-terminal GST (pGEX-6P-1); label: 5'-biotin-TEG; single strand; weak predicted secondary structure (-0.5 kcal/mol)"}, "GST-hnRNPA2B1 [7]": {"molecular_target": "T2, GST-hnRNPA2B1", "experiment": "AlphaScreen kinetics (koff/kon); 30 nM protein; kon 523664 M-1 min-1, koff 0.02091 min-1; AlphaScreen: 25 mM HEPES pH 7.4, 100 mM NaCl, 0.01% BSA, RT 1 h; REMSA: 20 mM HEPES pH 7.5, 50 mM KCl, 0.5 ug BSA, 0.25% glycerol, RT; pull-down: 25 mM HEPES pH 7.5, 100 mM NaCl, 4 C", "details": "protein: recombinant; tags: N-terminal GST (pGEX-6P-1); label: 5'-biotin-TEG; single strand; weak predicted secondary structure (-0.5 kcal/mol)"}}, "note": "“And” between values parts separate entries of the source, which are not always exact repeats. Identical values can stand only once. Counter-ions that a name gives are not always drawn.", "data": [{"molecule": "CC(C)=CC1C(C(=O)OCc2cccc(Oc3ccccc3)c2)C1(C)C", "note": "(centres unmarked) [P, phenotrin]", "values": [{"measurement": "IC50", "setting": "[1]", "result": "~120 nM and 122 nM"}, {"measurement": "spectroscopic changes at 230 nm", "setting": "EXO-motif RNA probe", "result": "main spectroscopic changes"}, {"measurement": "percentage of bound targets (miR-221, miR-1910)", "setting": "[2]", "result": "significantly reduced"}, {"measurement": "accumulation of intracellular RNAs", "setting": "NSC34 cells", "result": "significantly higher"}, {"measurement": "vesicular miR-221, copy number normalized on Y3 RNA and DMSO", "setting": "[3]", "result": "vesicular depletion"}]}, {"molecule": "O=C(O[C@@H]1Cc2c(O)cc(O)cc2O[C@@H]1c1cc(O)c(=O)c2c(O)c(O)cc([C@H]3Oc4cc(O)cc(O)c4C[C@H]3OC(=O)c3cc(O)c(O)c(O)c3)c2c1)c1cc(O)c(O)c(O)c1", "note": "[TD, theaflavin digallate]", "values": [{"measurement": "vesicular miR-221, copy number normalized on Y3 RNA and DMSO", "setting": "[3]", "result": "vesicular depletion"}]}, {"molecule": "C=C1c2cccc(O)c2C(=O)C2=C(O)[C@]3(O)C(=O)C(C(N)=O)=C(O)[C@@H](N(C)C)[C@@H]3[C@@H](O)[C@H]12", "note": "[MH, methacycline hydrochloride, reference compound]", "values": [{"measurement": "IC50", "setting": "[1]", "result": 100, "unit": "nM"}, {"measurement": "association of hnRNPA2B1 protein with exogenous purine-rich RNA probe", "setting": "[4]", "result": "most effective"}, {"measurement": "vesicular miR-221, copy number normalized on Y3 RNA and DMSO", "setting": "[3]", "result": "vesicular depletion"}]}, {"molecule": "O=C(O)C1=CC(=C(c2ccc(O)c(C(=O)O)c2)c2ccc(O)c(C(=O)O)c2)C=CC1=O", "note": "[ATA, aurin tricarboxylic Acid, reference compound]", "values": [{"measurement": "IC50", "setting": "[1]", "result": "~250 nM and 250 nM"}]}, {"molecule": "neomycin [reference compound]", "values": [{"measurement": "thermal shift of the EXO-motif RNA", "setting": "EXO-motif RNA", "result": 6.3, "unit": "°C"}]}, {"molecule": "B1", "values": [{"measurement": "binding result", "setting": "GST-hnRNPA2B1 [5]", "result": "no binding"}]}, {"molecule": "B2", "values": [{"measurement": "Kd", "setting": "GST-hnRNPA2B1 [6]", "result": "3.4 ± 1.6", "unit": "nM"}, {"measurement": "Kd", "setting": "GST-hnRNPA2B1 [7]", "result": "40 ± 3", "unit": "nM"}]}]}
